Source: patent publication US7816522B2, “Triazolone derivatives” (Eisai Co., Ltd., priority 2006, dated 2010)
Counter-ions that a name gives are not always drawn.

Each compound was assayed against T1, human clotting factor VIIa (Homo sapiens, UniProt P08709) (assay: Inhibitory activity against clotting factor VIIa (chromogenic substrate Spectrozyme FVIIa, TF/Factor VIIa enzyme solution)). Settings: human Factor VIIa 5 nmol/L with human TF 10 nmol/L, room temperature 40 minutes, 405 nm.
T1 construct: a human clotting factor VIIa (hereinafter, “Factor VIIa”) purified sample; purchased Enzyme Research Laboratories HFVIIa
Type: biochemical
Summary of the method: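 Human Factor VIIa (5 nmol/L) with human TF (10 nmol/L) in Tris-BSA buffer pH 7.4 containing 15 mmol/L CaCl2 and cephalin, with Spectrozyme FVIIa substrate. Reaction 40 min at room temperature; 4-nitroanilide read at 405 nm. IC50 by non-linear regression over 100 μmol/L–0.1 nmol/L.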

T1 sequence (P08709 213-466 limits assumed): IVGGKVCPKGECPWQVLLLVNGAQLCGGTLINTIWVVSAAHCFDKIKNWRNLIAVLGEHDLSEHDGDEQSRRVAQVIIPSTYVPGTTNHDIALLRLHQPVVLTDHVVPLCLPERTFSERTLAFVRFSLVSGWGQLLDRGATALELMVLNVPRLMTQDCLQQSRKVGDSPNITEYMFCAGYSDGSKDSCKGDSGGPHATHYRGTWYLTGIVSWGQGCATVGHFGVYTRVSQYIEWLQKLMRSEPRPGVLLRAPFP
T1 sequence (P08709 61-212 limits assumed): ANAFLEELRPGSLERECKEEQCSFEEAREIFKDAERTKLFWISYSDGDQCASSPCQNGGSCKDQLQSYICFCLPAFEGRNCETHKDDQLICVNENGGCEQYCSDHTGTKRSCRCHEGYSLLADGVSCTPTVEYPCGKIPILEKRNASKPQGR
T1 sequence (P13726 33-295 partner): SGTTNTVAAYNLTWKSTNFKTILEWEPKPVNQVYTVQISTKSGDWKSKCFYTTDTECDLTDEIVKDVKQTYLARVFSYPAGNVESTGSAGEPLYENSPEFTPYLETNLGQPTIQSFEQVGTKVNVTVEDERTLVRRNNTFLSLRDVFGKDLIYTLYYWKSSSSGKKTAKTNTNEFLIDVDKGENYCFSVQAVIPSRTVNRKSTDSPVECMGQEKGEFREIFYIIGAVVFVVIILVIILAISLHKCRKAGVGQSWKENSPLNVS

COc1cc(F)c(C(Nc2ccc(C(=N)N)cc2)c2nn(-c3ncccc3F)c(=O)[nH]2)cc1OC (stereo not shown) [Example 125, 4-({(2-fluoro-4,5-dimethoxyphenyl)-[1-(3-fluoropyridin-2-yl)-5-oxo-4,5-dihydro-1H-[1,2,4]triazol-3-yl]methyl}amino)benzamidine acetate] and COc1cc(F)c(C(Nc2ccc(C(=N)N)cc2)c2nn(-c3ncccc3Br)c(=O)[nH]2)cc1OC (stereo not shown) [Example 134, 4-({[1-(3-bromopyridin-2-yl)-5-oxo-4,5-dihydro-1H-[1,2,4]triazol-3-yl]-(2-fluoro-4,5-dimethoxyphenyl)methyl}amino)benzamidine acetate] are within 1.5-fold of each other in IC50: 10.3 nM for the first, 11.7 nM for the second.

CCOc1cc(C(Nc2ccc(C(=N)N)cc2)c2nn(-c3ncccc3OC)c(=O)[nH]2)ccc1OCC(=O)NC (stereo not shown) [Example 126, 2-(4-{(4-carbamimidoylphenylamino)-[1-(3-methoxypyridin-2-yl)-5-oxo-4,5-dihydro-1H-[1,2,4]triazol-3-yl]methyl}-2-ethoxyphenoxy)-N-methyl-acetamide acetate] and CCOc1cc(C(Nc2ccc(C(=N)N)cc2)c2nn(-c3ncccc3C)c(=O)[nH]2)ccc1OCC(=O)NC (stereo not shown) [Example 127, 2-(4-{(4-carbamimidoylphenylamino)-[1-(3-methylpyridin-2-yl)-5-oxo-4,5-dihydro-1H-[1,2,4]triazol-3-yl]methyl}-2-ethoxyphenoxy)-N-methylacetamide acetate] are within 1.5-fold of each other in IC50: 10.9 nM for the first, 9.3 nM for the second.

CCOc1cc(C(Nc2ccc(C(=N)N)cc2)c2nn(-c3ncccc3C)c(=O)[nH]2)ccc1OCCOC (stereo not shown) [Example 128, 4-({[3-ethoxy-4-(2-methoxyethoxy)phenyl]-[1-(3-methylpyridin-2-yl)-5-oxo-4,5-dihydro-1H-[1,2,4]triazol-3-yl]methyl}amino)benzamidine acetate] and COCCOc1cc(OC)cc(C(Nc2ccc(C(=N)N)cc2)c2nn(-c3ncccc3N)c(=O)[nH]2)c1F (stereo not shown) [Example 202, 4-({[1-(3-Aminopyridin-2-yl)-5-oxo-4,5-dihydro-1H-[1,2,4]triazol-3-yl]-[2-fluoro-5-methoxy-3-(2-methoxyethoxy)phenyl]methyl}amino)benzamidine acetate] are within 1.5-fold of each other in IC50: 9.9 nM for the first, 12 nM for the second.

Compared with CCc1cc(OCC(=O)N(C)C)c(F)c(C(Nc2ccc(C(=N)N)cc2)c2nn(-c3ccccc3NC(=O)OC)c(=O)[nH]2)c1 (stereo not shown) [Example 135, (2-{3-[(4-carbamimidoylphenylamino)-(3-dimethylcarbamoylmethoxy-5-ethyl-2-fluorophenyl)methyl]-5-oxo-4,5-dihydro-1H-[1,2,4]triazol-1-yl}phenyl)carbamic acid methyl ester trifluoroacetate], CCc1cc(OCC(C)(C)CN(C)C)c(F)c(C(Nc2ccc(C(=N)N)cc2)c2nn(-c3ccccc3C(=O)O)c(=O)[nH]2)c1 (stereo not shown) [Example 142, 2-(3{(4-carbamimidoyl-phenylamino)-[3-(3-dimethylamino-2,2-dimethylpropoxy)-5-ethyl-2-fluorophenyl]methyl}-5-oxo-4,5-dihydro-1H-[1,2,4]triazol-1-yl}benzoic acid bistrifluoroacetate] is 1.8-fold lower in IC50: 8.6 nM for the first, 4.7 nM for the second.

First: COc1cc(F)c(C(Nc2ccc(C(=N)N)cc2)c2nn(-c3ncccc3N)c(=O)[nH]2)cc1OC (stereo not shown) [Example 138, 4-({[1-(3-aminopyridin-2-yl)-5-oxo-4,5-dihydro-1H-[1,2,4]triazol-3-yl]-(2-fluoro-4,5-dimethoxyphenyl)methyl}amino)benzamidine trifluoroacetate]
Second: COc1cc(OCCO)c(F)c(C(Nc2ccc(C(=N)N)cc2)c2nn(-c3ncccc3N)c(=O)[nH]2)c1 (stereo not shown) [Example 200, 4-({[1-(3-Aminopyridin-2-yl)-5-oxo-4,5-dihydro-1H-[1,2,4]triazol-3-yl]-[2-fluoro-3-(2-hydroxyethoxy)-5-methoxyphenyl]methyl}amino)benzamidine]
The IC50 of the first is 1.5-fold higher: 17 nM for the first, 11.3 nM for the second.

CCc1cc(OCCN(C)C)c(F)c(C(Nc2ccc(C(=N)N)cc2)c2nn(-c3ccccc3N)c(=O)[nH]2)c1 (stereo not shown) [Example 139, 4-({[1-(2-aminophenyl)-5-oxo-4,5-dihydro-1H-[1,2,4]triazol-3-yl]-[3-(2-dimethylaminoethoxy)-5-ethyl-2-fluorophenyl]methyl}amino)benzamidine bistrifluoroacetate] and CCc1cc(OCCN(C)C)c(F)c(C(Nc2ccc(C(=N)N)cc2)c2nn(-c3ccccn3)c(=O)[nH]2)c1 (stereo not shown) [Example 140, 4-({[3-(2-dimethylaminoethoxy)-5-ethyl-2-fluorophenyl]-(5-oxo-1-pyridin-2-yl-4,5-dihydro-1H-[1,2,4]triazol-3-yl)methyl}amino)benzamidine bistrifluoroacetate] are within 1.5-fold of each other in IC50: 3.8 nM for the first, 5.3 nM for the second.

First: CCc1cc(OC(C)CN(C)C)c(F)c(C(Nc2ccc(C(=N)N)cc2)c2nn(-c3ccccn3)c(=O)[nH]2)c1 (stereo not shown) [Example 141, 4-({[3-(2-dimethylamino-1-methylethoxy)-5-ethyl-2-fluorophenyl]-(5-oxo-1-pyridin-2-yl-4,5-dihydro-1H-[1,2,4]triazol-3-yl)methyl}amino)benzamidine bistrifluoroacetate]
Second: CCc1cc(OCCCO)c(F)c(C(Nc2ccc(C(=N)N)cc2)c2nn(-c3ncccc3N)c(=O)[nH]2)c1 (stereo not shown) [Example 204, 4-({[1-(3-Aminopyridin-2-yl)-5-oxo-4,5-dihydro-1H-[1,2,4]triazol-3-yl]-[5-ethyl-2-fluoro-3-(3-hydroxypropoxy)phenyl]methyl}amino)benzamidine acetate]
The IC50 of the first is 1.9-fold higher: 5 nM for the first, 2.7 nM for the second.

First: COc1cc(C(Nc2ccc(C(=N)N)cc2)c2nn(-c3cccnn3)c(=O)[nH]2)cc2c1OCCCO2 (stereo not shown) [Example 147, 4-{[(9-methoxy-3,4-dihydro-2H-benzo[b][1,4]dioxepin-7-yl)-(5-oxo-1-pyridazin-3-yl-4,5-dihydro-1H-[1,2,4]triazol-3-yl)methyl]amino}benzamidine acetate]
Second: COc1cc(C(Nc2ccc(C(=N)N)cc2)c2nn(-c3[nH]ncc3C(=O)O)c(=O)[nH]2)c(F)c2c1OCCCO2 (stereo not shown) [Example 196, 5-{3-[(4-Carbamimidoylphenylamino)-(6-fluoro-9-methoxy-3,4-dihydro-2H-benzo[b][1,4]dioxepin-7-yl)methyl]-5-oxo-4,5-dihydro-[1,2,4]triazol-1-yl}-1H-pyrazole-4-carboxylic acid acetate]
The IC50 of the first is 3.5-fold lower: 5.1 nM for the first, 17.8 nM for the second.

First: COc1cc(F)c(C(Nc2ccc(C(=N)N)cc2)c2nn(-c3[nH]ncc3C(=O)O)c(=O)[nH]2)cc1OC (stereo not shown) [Example 157, 5-{3-[(4-carbamimidoylphenylamino)-(2-fluoro-4,5-dimethoxyphenyl)methyl]-5-oxo-4,5-dihydro-[1,2,4]triazol-1-yl}-1H-pyrazole-4-carboxylic acid]
Second: CCOC(=O)c1cn[nH]c1-n1nc(C(Nc2ccc(C(=N)N)cc2)c2cc(OC)c(OC)cc2F)[nH]c1=O (stereo not shown) [Example 157d, 5-{3-[(4-carbamimidoylphenylamino)-(2-fluoro-4,5-dimethoxyphenyl)methyl]-5-oxo-4,5-dihydro-[1,2,4]triazol-1-yl}-1H-pyrazole-4-carboxylic acid ethyl ester]
The IC50 of the first is 8.6-fold higher: 59.4 nM for the first, 6.9 nM for the second. The second is the more potent here.

CCOC(=O)c1cn[nH]c1-n1nc(C(Nc2ccc(C(=N)N)cc2)c2cc(OC)c3c(c2F)OCCO3)[nH]c1=O (stereo not shown) [Example 175, 5-{3-[(4-carbamimidoylphenylamino)-(5-fluoro-8-methoxy-2,3-dihydrobenzo[1,4]dioxin-6-yl)methyl]-5-oxo-4,5-dihydro-[1,2,4]triazol-1-yl}-1H-pyrazole-4-carboxylic acid ethyl ester acetate] and CCOC(=O)c1cn[nH]c1-n1nc(C(Nc2ccc(C(=N)N)cc2)c2cc(OC)c3c(c2F)OCCCO3)[nH]c1=O (stereo not shown) [Example 192, 5-{3-[(4-Carbamimidoylphenylamino)-(6-fluoro-9-methoxy-3,4-dihydro-2H-benzo[b][1,4]dioxepin-7-yl)methyl]-5-oxo-4,5-dihydro-[1,2,4]triazol-1-yl}-1H-pyrazole-4-carboxylic acid ethyl ester acetate] are within 1.5-fold of each other in IC50: 6.5 nM for the first, 5.4 nM for the second.

First: COc1cc(OCCCO)c(F)c(C(Nc2ccc(C(=N)N)cc2)c2nn(-c3[nH]ncc3C(=O)O)c(=O)[nH]2)c1 (stereo not shown) [Example 177, 5-(3-{(4-carbamimidoylphenylamino)-[2-fluoro-3-(3-hydroxypropoxy)-5-methoxyphenyl]methyl}-5-oxo-4,5-dihydro-[1,2,4]triazol-1-yl)-1H-pyrazole-4-carboxylic acid acetate]
Second: COc1cc(OCCO)c(F)c(C(Nc2ccc(C(=N)N)cc2)c2nn(-c3ncsc3C(=O)O)c(=O)[nH]2)c1 (stereo not shown) [Example 182, 4-(3-{(4-carbamimidoylphenylamino)-[2-fluoro-3-(2-hydroxyethoxy)-5-methoxyphenyl]methyl}-5-oxo-4,5-dihydro[1,2,4]triazol-1-yl)thiazole-5-carboxylic acid trifluoroacetate]
The IC50 of the first is 1.5-fold lower: 27.6 nM for the first, 41.7 nM for the second.

COc1cc(OCCO)c(F)c(C(Nc2ccc(C(=N)N)cc2)c2nn(-c3ncccn3)c(=O)[nH]2)c1 (stereo not shown) [Example 181, 4-({[2-fluoro-3-(2-hydroxyethoxy)-5-methoxyphenyl]-(5-oxo-1-pyrimidin-2-yl-4,5-dihydro-1H-[1,2,4]triazol-3-yl)methyl}amino)benzamidine acetate] and CCOC(=O)c1cn[nH]c1-n1nc(C(Nc2ccc(C(=N)N)cc2)c2cc(OC)c3c(c2F)OCCO3)[nH]c1=O (stereo not shown) [Example 197, 5-{3-[(4-Carbamimidoylphenylamino)-(5-fluoro-8-methoxy-2,3-dihydrobenzo[1,4]dioxin-6-yl)methyl]-5-oxo-4,5-dihydro-[1,2,4]triazol-1-yl}-1H-pyrazole-4-carboxylic acid ethyl ester trifluoroacetate] are within 1.5-fold of each other in IC50: 9.3 nM for the first, 7.8 nM for the second.

For COc1cc(C(Nc2ccc(C(=N)N)cc2)c2nn(-c3[nH]ncc3C(=O)O)c(=O)[nH]2)c(F)c2c1OCCC2 (stereo not shown) [Example 189, 5-{3-[(4-Carbamimidoylphenylamino)-(5-fluoro-8-methoxychroman-6-yl)methyl]-5-oxo-4,5-dihydro-[1,2,4]triazol-1-yl}-1H-pyrazole-4-carboxylic acid], the IC50 was 32.2 nM.
